According to ChEMBL document CHEMBL3046641, “QSAR study of some CCR5 antagonists as anti-HIV agents using radial basis function neural network and general regression neural network on the basis of principal components” (Med Chem Res, 2012):

Target: C-C chemokine receptor type 5 (Homo sapiens, UniProt P51681)
Experiment: Antagonist activity at Homo sapiens (human) CCR5 receptor

Chain of C-C chemokine receptor type 5 (P51681 whole entry): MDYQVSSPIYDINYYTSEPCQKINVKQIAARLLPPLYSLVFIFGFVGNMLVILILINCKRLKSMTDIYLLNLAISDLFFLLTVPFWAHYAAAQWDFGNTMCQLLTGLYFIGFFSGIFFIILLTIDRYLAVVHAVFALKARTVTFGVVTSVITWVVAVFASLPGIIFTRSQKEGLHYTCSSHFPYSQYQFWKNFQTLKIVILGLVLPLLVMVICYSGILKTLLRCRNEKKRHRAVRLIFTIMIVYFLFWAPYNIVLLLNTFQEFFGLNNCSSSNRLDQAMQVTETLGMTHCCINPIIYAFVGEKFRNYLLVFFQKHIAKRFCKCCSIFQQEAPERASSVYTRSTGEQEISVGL

IC50 | SMILES
0.7 µM | CN(C[C@@H](CCN1CCC2(CC1)CS(=O)(=O)c1ccccc12)c1ccc(Cl)c(Cl)c1)S(=O)(=O)c1ccc([N+](=O)[O-])cc1
0.899 µM | CN(C[C@@H](CCN1CCC2(CCc3ccccc32)CC1)c1cccc(Cl)c1)S(=O)(=O)c1ccccc1
0.7 µM | CN(C[C@@H](CCN1CCC2(CC1)C[S+]([O-])c1ccccc12)c1cccc(Cl)c1)S(=O)(=O)c1ccccc1 (stereo partly specified)
1.8 µM | CCCCCCCCS(=O)(=O)N(C)C[C@@H](CCN1CCC2(CC1)C[S+]([O-])c1ccccc12)c1ccc(Cl)c(Cl)c1 (stereo partly specified)
2 µM | CN(C[C@@H](CCN1CCC(c2cccc(C(F)(F)F)c2)CC1)c1cccc(Cl)c1)S(=O)(=O)c1ccccc1
0.4 µM | CN(C[C@@H](CCN1CCC2(CC1)CS(=O)(=O)c1ccccc12)c1ccc(Cl)c(Cl)c1)S(=O)(=O)c1ccccc1
0.35 µM | COc1ccc(S(=O)(=O)N(C)C[C@@H](CCN2CCC3(CC2)C[S+]([O-])c2ccccc23)c2ccc(Cl)c(Cl)c2)cc1 (stereo partly specified)
0.6 µM | CN(C[C@@H](CCN1CCC2(CC1)CNC(=O)c1ccccc12)c1ccc(Cl)c(Cl)c1)S(=O)(=O)c1cccc([N+](=O)[O-])c1
8.49 µM | CN(C[C@@H](CCN1CCC2(CC1)C[S+]([O-])c1ccccc12)c1ccc(Cl)c(Cl)c1)S(=O)(=O)c1cccnc1 (stereo partly specified)
1 µM | CN(C[C@@H](CCN1CCC2(CC1)CS(=O)(=O)c1ccccc12)c1cccc(Cl)c1)S(=O)(=O)c1ccccc1
0.05 µM | CN(C[C@@H](CCN1CCC(CCCc2ccccc2)CC1)c1cccc(Cl)c1)S(=O)(=O)c1ccccc1
14 µM | CN(C[C@@H](CCN1CCC2(CC1)C[S+]([O-])c1ccccc12)c1ccc(Cl)c(Cl)c1)S(=O)(=O)c1cccc2cccnc12 (stereo partly specified)
1 µM | CN(C[C@@H](CCN1CCC2(CC1)C[S+]([O-])c1ccccc12)c1ccc(Cl)c(Cl)c1)S(=O)(=O)c1cn(C)cn1 (stereo partly specified)
2.7 µM | CN(C)S(=O)(=O)N(C)C[C@@H](CCN1CCC2(CC1)C[S+]([O-])c1ccccc12)c1ccc(Cl)c(Cl)c1 (stereo partly specified)
0.15 µM | CN(C[C@@H](CCN1CCC2(CC1)C[S+]([O-])c1ccccc12)c1ccc(Cl)c(Cl)c1)S(C)(=O)=O (stereo partly specified)
0.3 µM | CN(C[C@@H](CCN1CCC2(CC1)NC(=O)c1ccccc12)c1cccc(Cl)c1)S(=O)(=O)c1ccccc1
3.4 µM | CN(C[C@@H](CCN1CCC2(CC1)C[S+]([O-])c1ccccc12)c1ccc(Cl)c(Cl)c1)S(=O)(=O)c1ccc2ccccc2c1 (stereo partly specified)
0.1 µM | CN(C[C@@H](CCN1CCC2(CC1)C[S+]([O-])c1ccccc12)c1ccc(Cl)c(Cl)c1)S(=O)(=O)Cc1ccccc1 (stereo partly specified)
2.5 µM | CN(C[C@@H](CCN1CCC(c2ccc(F)cc2)CC1)c1cccc(Cl)c1)S(=O)(=O)c1ccccc1
1 µM | CN(C[C@@H](CCN1CCC2(CC1)C[S+]([O-])c1ccccc12)c1ccc(Cl)c(Cl)c1)S(=O)(=O)c1cncc2ccccc12 (stereo partly specified)
1 µM | CN(C[C@@H](CCN1CCC2(CC1)C[S+]([O-])c1ccccc12)c1ccc(Cl)c(Cl)c1)S(=O)(=O)c1cccc(Cl)c1 (stereo partly specified)
3.4 µM | CN(C[C@@H](CCN1CCC2(CC1)CC(=O)c1ccccc12)c1cccc(Cl)c1)S(=O)(=O)c1ccccc1
7 µM | CN(C[C@@H](CCN1CCC2(CC1)CC(=O)Nc1ccccc12)c1ccc(Cl)c(Cl)c1)S(=O)(=O)c1cccc([N+](=O)[O-])c1

IC50 | SMILES
10 µM | CN(C[C@@H](CCN1CCC(c2ccccc2)CC1)c1cccc(Cl)c1)S(=O)(=O)c1ccccc1
0.65 µM | CN(C[C@@H](CCN1CCC(Cc2ccccc2)CC1)c1cccc(Cl)c1)S(=O)(=O)c1ccccc1
0.6 µM | CN(C[C@@H](CCN1CCC2(CC1)CSc1ccccc12)c1cccc(Cl)c1)S(=O)(=O)c1ccccc1
1.2 µM | CN(C[C@@H](CCN1CCC2(CC1)CS(=O)(=O)c1ccccc12)c1ccc(Cl)c(Cl)c1)S(=O)(=O)c1cccs1
0.6 µM | CN(C[C@@H](CCN1CCC(CCc2ccccc2)CC1)c1cccc(Cl)c1)S(=O)(=O)c1ccccc1
0.35 µM | CN(C[C@@H](CCN1CCC2(CC1)C[S+]([O-])c1ccccc12)c1ccc(Cl)c(Cl)c1)S(=O)(=O)c1ccc(Cl)cc1 (stereo partly specified)
0.35 µM | Cc1ccccc1N1CCN(CC[C@H](CN(C)S(=O)(=O)c2ccccc2)c2cccc(Cl)c2)CC1
1.2 µM | Cc1ccccc1C1CCN(CC[C@H](CN(C)S(=O)(=O)c2ccccc2)c2cccc(Cl)c2)CC1
3.6 µM | CN(C[C@@H](CCN1CCC2(CC1)C[S+]([O-])c1ccccc12)c1ccc(Cl)c(Cl)c1)S(=O)(=O)c1cccs1 (stereo partly specified)
1.2 µM | CN(C[C@@H](CCN1CCC2(CC1)CNc1ccccc12)c1cccc(Cl)c1)S(=O)(=O)c1ccccc1
4 µM | CN(C[C@@H](CCN1CCC2(CC1)Cc1ccccc1O2)c1cccc(Cl)c1)S(=O)(=O)c1ccccc1
0.05 µM | CN(C[C@@H](CCN1CCC2(CC1)C[S+]([O-])c1ccccc12)c1ccc(Cl)c(Cl)c1)S(=O)(=O)C1CCCCC1 (stereo partly specified)
1 µM | CN(C[C@@H](CCN1CCC2(CC1)C[S+]([O-])c1ccccc12)c1ccc(Cl)c(Cl)c1)S(=O)(=O)c1ccc(-c2ccccc2)cc1 (stereo partly specified)
0.25 µM | CN(C[C@@H](CCN1CCC(c2ccc(Cl)cc2)CC1)c1cccc(Cl)c1)S(=O)(=O)c1ccccc1
1 µM | COc1ccccc1C1CCN(CC[C@H](CN(C)S(=O)(=O)c2ccccc2)c2cccc(Cl)c2)CC1
0.5 µM | CN(C[C@@H](CCN1CCC2(CC1)C[S+]([O-])c1ccccc12)c1ccc(Cl)c(Cl)c1)S(=O)(=O)C1CCCC1 (stereo partly specified)
24 µM | CN(C[C@@H](CCN1CCC2(CC1)CC(O)c1ccccc12)c1cccc(Cl)c1)S(=O)(=O)c1ccccc1 (stereo partly specified)
1.5 µM | CN1C(=O)c2ccccc2C12CCN(CC[C@H](CN(C)S(=O)(=O)c1ccccc1)c1cccc(Cl)c1)CC2
0.4 µM | CN(C[C@@H](CCN1CCC2(CC1)CSc1ccccc12)c1ccc(Cl)c(Cl)c1)S(=O)(=O)c1ccccc1
0.8 µM | CN(C[C@@H](CCN1CCC2(CC1)CS(=O)(=O)c1ccccc12)c1ccc(Cl)c(Cl)c1)S(=O)(=O)c1cccc([N+](=O)[O-])c1
0.45 µM | CN(C[C@@H](CCN1CCC2(CC1)C[S+]([O-])c1ccccc12)c1ccc(Cl)c(Cl)c1)S(=O)(=O)c1ccccc1Cl (stereo partly specified)
2.6 µM | CN(C[C@@H](CCN1CCC2(CC1)C[S+]([O-])c1ccccc12)c1ccc(Cl)c(Cl)c1)S(=O)(=O)c1cccc2ccccc12 (stereo partly specified)
5.9 µM | CN(C[C@@H](CCN1CCC2(CC1)C[S+]([O-])c1ccccc12)c1ccc(Cl)c(Cl)c1)S(=O)(=O)c1ccc2c(c1)CCC2 (stereo partly specified)
